Assay results taken from patent US9689021B2, “Method for measuring beta-lactam antibiotics” (priority 2011, dated 2017).

Key:
[1] = system: Oxa-29 class D beta-lactamase; assay: BLAC2 method, nitrocefin (CPR) rate with Oxa-29; type: biochemical
Procedure: (§1) The dilution buffer for the enzymes, CPR, standards and samples was 50 mM PBS buffer, pH 7.0.
(§2) The stock solution of CPR was 200 μM. Standards solution of ampicillin and cefuroxime were prepared at 100, 75, 50, 30, 15, 5, 1 and 0 mg/L.
In the method 2 (BLAC2), 99 μl of sample, 99 μl of CPR and 22 μl of enzyme Oxa-29 were mixed. The reaction kinetics was determined by measuring the absorbance at 482 nm as a function of time. Enzyme activity v0 max was adjusted at +/−0.2 ΔAbs482/min.

[2] = molecular target: P99 class C beta-lactamase (Enterobacter cloacae, UniProt P05364); assay: BLAC1 method, nitrocefin (CPR) rate with P99 (Example 7); type: biochemical
Sequence of P99 class C beta-lactamase (P05364 21-381): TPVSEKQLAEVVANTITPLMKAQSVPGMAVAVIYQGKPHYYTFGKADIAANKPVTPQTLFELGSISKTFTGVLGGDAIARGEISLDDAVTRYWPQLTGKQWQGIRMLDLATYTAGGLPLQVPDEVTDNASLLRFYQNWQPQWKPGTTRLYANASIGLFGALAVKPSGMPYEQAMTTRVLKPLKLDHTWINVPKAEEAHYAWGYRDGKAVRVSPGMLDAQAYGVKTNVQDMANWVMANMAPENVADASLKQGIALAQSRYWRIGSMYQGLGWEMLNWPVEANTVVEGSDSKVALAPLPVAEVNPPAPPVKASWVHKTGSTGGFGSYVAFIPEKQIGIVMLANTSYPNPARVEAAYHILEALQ
Procedure: as §1, §2
In the method 1 (BLAC1), 10 μl of 50-fold diluted sample, 100 μl of CPR and 100 μl of enzyme P99 were mixed. The reaction kinetics was determined by measuring the absorbance at 482 nm as a function of time. Enzyme activity v0 max was adjusted at +/−0.33 ΔAbs482/min.

[3] = molecular target: class A beta-lactamase (penicillinase) TEM-1 (Escherichia coli, UniProt P62593); assay: BLAC2 method, nitrocefin (CPR) rate with Tem-1; type: biochemical; conditions: even at 100 mg/L, fixed CPR
Sequence of class A beta-lactamase (penicillinase) TEM-1 (P62593 24-286 limits assumed): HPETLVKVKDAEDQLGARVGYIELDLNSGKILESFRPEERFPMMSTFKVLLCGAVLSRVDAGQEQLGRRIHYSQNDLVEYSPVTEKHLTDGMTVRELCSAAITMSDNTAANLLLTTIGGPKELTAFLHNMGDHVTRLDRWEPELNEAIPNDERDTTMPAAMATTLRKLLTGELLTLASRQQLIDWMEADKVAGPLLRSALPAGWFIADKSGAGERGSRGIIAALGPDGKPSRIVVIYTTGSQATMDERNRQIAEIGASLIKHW
Procedure: In order to determine the concentration of ampicillin in a solution, two beta-lactamases were compared, in particular the class A beta-lactamase (penicillinase) TEM-1 (UniProt: C514X2_ECOLX) and the class C beta-lactamase of Enterobacter cloacae P99 described in Example 1.
The dilution buffer for the enzymes, nitrocefin (CPR), standards and samples was 50 mM PBS buffer, pH 7. The stock solution of CPR was 200 μM. The standard solution of ampicillin was prepared at concentrations of 100, 75, 50, 30, 15, 5, 1 and 0 mg/L.
In the method 2 (BLAC2), 99 μl of sample, 99 μl of CPR and 22 μl of enzyme, i.e. Tem-1 or P99, were mixed. The enzyme activity (v0 max) was adjusted at +/−0.2 ΔAbs482/min.

[4] = molecular target: class C beta-lactamase of Enterobacter cloacae P99 (Enterobacter cloacae, UniProt P05364); conditions: cited from earlier work
Sequence of class C beta-lactamase of Enterobacter cloacae P99 (P05364 21-381): as the sequence (P05364 21-381) above

[5] = system: class C beta-lactamase of Enterobacter cloacae 908R; conditions: cited from earlier work
[6] = molecular target: class C beta-lactamase of Citrobacter freundii (Citrobacter freundii, UniProt P05193); conditions: cited from earlier work
Sequence of class C beta-lactamase of Citrobacter freundii (P05193 21-381): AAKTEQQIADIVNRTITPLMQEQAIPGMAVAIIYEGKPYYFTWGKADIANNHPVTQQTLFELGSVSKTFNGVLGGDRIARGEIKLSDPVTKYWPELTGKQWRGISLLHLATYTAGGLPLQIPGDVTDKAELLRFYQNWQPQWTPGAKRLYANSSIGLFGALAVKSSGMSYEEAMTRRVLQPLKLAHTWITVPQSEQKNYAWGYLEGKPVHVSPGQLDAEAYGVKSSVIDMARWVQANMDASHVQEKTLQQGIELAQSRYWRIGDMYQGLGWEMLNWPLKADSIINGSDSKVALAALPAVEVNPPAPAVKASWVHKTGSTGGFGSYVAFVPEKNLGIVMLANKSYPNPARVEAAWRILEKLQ

[7] = molecular target: class C beta-lactamase of Escherichia coli K12 (Escherichia coli, UniProt P00811); conditions: cited from earlier work
Sequence of class C beta-lactamase of Escherichia coli K12 (P00811 20-377): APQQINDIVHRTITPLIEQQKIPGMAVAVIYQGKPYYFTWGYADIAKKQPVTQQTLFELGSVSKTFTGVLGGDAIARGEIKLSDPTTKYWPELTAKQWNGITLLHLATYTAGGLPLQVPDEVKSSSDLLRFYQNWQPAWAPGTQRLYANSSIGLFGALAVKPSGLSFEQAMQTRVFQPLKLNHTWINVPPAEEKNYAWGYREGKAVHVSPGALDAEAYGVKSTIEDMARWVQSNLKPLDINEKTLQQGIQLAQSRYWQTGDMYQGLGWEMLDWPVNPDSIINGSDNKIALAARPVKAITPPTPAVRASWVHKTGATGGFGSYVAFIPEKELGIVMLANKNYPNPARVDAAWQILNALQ

[8] = molecular target: class C beta-lactamase of Serratia marcescens (Serratia marcescens, UniProt P18539); conditions: Serratia marcescens, cited from earlier work
Sequence of class C beta-lactamase of Serratia marcescens (P18539 22-376): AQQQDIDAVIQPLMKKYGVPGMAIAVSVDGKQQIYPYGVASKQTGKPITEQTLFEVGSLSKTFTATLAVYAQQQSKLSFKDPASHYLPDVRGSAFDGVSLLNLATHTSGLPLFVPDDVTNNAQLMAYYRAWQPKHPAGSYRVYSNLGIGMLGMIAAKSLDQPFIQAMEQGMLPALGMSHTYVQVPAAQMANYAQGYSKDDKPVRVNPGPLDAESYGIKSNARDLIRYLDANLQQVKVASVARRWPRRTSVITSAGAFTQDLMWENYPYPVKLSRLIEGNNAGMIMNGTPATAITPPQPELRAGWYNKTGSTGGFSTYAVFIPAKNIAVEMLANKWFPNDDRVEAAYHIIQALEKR

[9] = molecular target: class C beta-lactamase of Pseudomonas aeruginosa (Pseudomonas aeruginosa, UniProt P24735); conditions: Pseudomonas aeruginosa, cited from earlier work
Sequence of class C beta-lactamase of Pseudomonas aeruginosa (P24735 27-397): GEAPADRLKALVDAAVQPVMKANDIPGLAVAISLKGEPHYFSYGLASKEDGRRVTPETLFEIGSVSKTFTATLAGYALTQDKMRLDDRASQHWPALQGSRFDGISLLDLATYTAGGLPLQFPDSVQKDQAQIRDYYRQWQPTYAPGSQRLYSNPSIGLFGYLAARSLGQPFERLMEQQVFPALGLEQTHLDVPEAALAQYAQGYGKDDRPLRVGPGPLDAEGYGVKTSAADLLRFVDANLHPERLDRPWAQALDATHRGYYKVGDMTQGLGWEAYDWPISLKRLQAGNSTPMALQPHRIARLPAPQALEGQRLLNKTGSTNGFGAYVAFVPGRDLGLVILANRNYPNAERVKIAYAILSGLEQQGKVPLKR

Structure (SMILES): CC1(C)S[C@@H]2[C@H](NC(=O)[C@H](N)c3ccccc3)C(=O)N2[C@H]1C(=O)O [Ampicillin]
- rate of Oxa-29 Class D beta-lactamase ([1]; BLAC2, 1 mg/L): 0.1831 ΔAbs482/min
- residual rate minus 1, (vomax/v0)−1, Oxa-29 ([1]; BLAC2, 1 mg/L): 0.048
- rate of Oxa-29 Class D beta-lactamase ([1]; BLAC2, 5 mg/L): 0.1680 ΔAbs482/min
- residual rate minus 1, (vomax/v0)−1, Oxa-29 ([1]; BLAC2, 5 mg/L): 0.142
- rate of Oxa-29 Class D beta-lactamase ([1]; BLAC2, 15 mg/L): 0.1532 ΔAbs482/min
- residual rate minus 1, (vomax/v0)−1, Oxa-29 ([1]; BLAC2, 15 mg/L): 0.253
- rate of Oxa-29 Class D beta-lactamase ([1]; BLAC2, 30 mg/L): 0.1292 ΔAbs482/min
- residual rate minus 1, (vomax/v0)−1, Oxa-29 ([1]; BLAC2, 30 mg/L): 0.485
- rate of Oxa-29 Class D beta-lactamase ([1]; BLAC2, 50 mg/L): 0.1056 ΔAbs482/min
- residual rate minus 1, (vomax/v0)−1, Oxa-29 ([1]; BLAC2, 50 mg/L): 0.817
- rate of Oxa-29 Class D beta-lactamase ([1]; BLAC2, 75 mg/L): 0.0869 ΔAbs482/min
- residual rate minus 1, (vomax/v0)−1, Oxa-29 ([1]; BLAC2, 75 mg/L): 1.208
- rate of Oxa-29 Class D beta-lactamase ([1]; BLAC2, 100 mg/L): 0.0730 ΔAbs482/min
- residual rate minus 1, (vomax/v0)−1, Oxa-29 ([1]; BLAC2, 100 mg/L): 1.629
- linear regression coefficient a (Y=aX+b), Oxa-29 ([1]; BLAC2, X in mg/L): 0.0159
- linear regression coefficient b (Y=aX+b), Oxa-29 ([1]; BLAC2, X in mg/L): 0.0002
- rate of P99 class C beta-lactamase ([2]; BLAC1, 1 mg/L): 0.3221 ΔAbs482/min
- residual rate minus 1, (vomax/v0)−1, P99 ([2]; BLAC1, 1 mg/L): 0.004
- rate of P99 class C beta-lactamase ([2]; BLAC1, 5 mg/L): 0.3207 ΔAbs482/min
- residual rate minus 1, (vomax/v0)−1, P99 ([2]; BLAC1, 5 mg/L): 0.008
- rate of P99 class C beta-lactamase ([2]; BLAC1, 15 mg/L): 0.3164 ΔAbs482/min
- residual rate minus 1, (vomax/v0)−1, P99 ([2]; BLAC1, 15 mg/L): 0.022
- rate of P99 class C beta-lactamase ([2]; BLAC1, 30 mg/L): 0.3114 ΔAbs482/min
- residual rate minus 1, (vomax/v0)−1, P99 ([2]; BLAC1, 30 mg/L): 0.038
- rate of P99 class C beta-lactamase ([2]; BLAC1, 50 mg/L): 0.3008 ΔAbs482/min
- residual rate minus 1, (vomax/v0)−1, P99 ([2]; BLAC1, 50 mg/L): 0.075
- rate of P99 class C beta-lactamase ([2]; BLAC1, 75 mg/L): 0.2909 ΔAbs482/min
- residual rate minus 1, (vomax/v0)−1, P99 ([2]; BLAC1, 75 mg/L): 0.111
- rate of P99 class C beta-lactamase ([2]; BLAC1, 100 mg/L): 0.2806 ΔAbs482/min
- residual rate minus 1, (vomax/v0)−1, P99 ([2]; BLAC1, 100 mg/L): 0.152
- linear regression coefficient a (Y=aX+b), P99 ([2]; BLAC1, X in mg/L): 0.0015
- linear regression coefficient b (Y=aX+b), P99 ([2]; BLAC1, X in mg/L): 0.0000
- inhibition of Tem-1 catalyzed reaction [3]: no inhibition of the reaction was observed
- Km [4]: 0.4 µM
- kcat [4]: 0.74 s⁻¹
- Km [5]: 0.4 µM
- kcat [5]: 0.53 s⁻¹
- Km [6]: 0.2 µM
- kcat [6]: 6.5 s⁻¹
- Km [7]: 3.5 µM
- kcat [7]: 4.2 s⁻¹
- kcat [8]: 0.46 s⁻¹
- Km ([8]; read-out: Km): 0.01 µM
- kcat [9]: 4.4 s⁻¹
- Km ([9]; read-out: Km): 0.5 µM
